The text below walks through data of patent US20200385371A1 (Propellon Therapeutics Inc., priority 2017, published 2020).

In assay [1] the target is T1, WDR5 (Homo sapiens, UniProt P61964). Nature of the assay: Fluorescence Polarization (FP) binding assay. The essentials: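 Buffer was pH 6.5 sodium phosphate (80 mM) with 20 mM KCl and 0.008% Triton X-100; 9-Ala-FAM probe at 20 nM used 0.05 μM WDR5 and 480/540 nm polarization, H3 (1-15) probe at 30 nM used 0.3 μM WDR5 and 485/528 nm. Quadruplicate data were hyperbola-fitted to give Kdisp.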
In general terms: Polarisation of emitted light reports the rotation of a fluorescent probe.

A further assay relates to MV4-11 cells. Briefly: Cell proliferation assay (ATPlite). The class given is cell-based. Particulars: Homo sapiens, 120 h; MV4-11 cells, five days; read-out: GI MV411 EC50. As to the method:
MV4-11 cells were seeded into a 96-well plate at 1,000 cells/well in 150 μl medium (Alpha-MEM containing 10% FBS, 100 μg/ml Normocin, and 50 μg/ml Gentamycin, Invitrogen). A HP D300 digital dispenser was used to dose cells with DMSO or test compounds across a 10-point range of concentrations (high dose of 10 μM), and cultures were grown in a humidified 5% CO2 incubator at 37° C. After five days, plates were removed from incubator and equilibrated to room temperature. An equal volume of ATPlite assay reagent was added to each well, and samples were processed according to manufacturer's instructions (Perkin Elmer). Luminescent signal was measured using an Envision plate reader equipped with a US-Luminescence detector.

Assay [2] addresses T1, WDR5. Nature of the assay: Surface Plasmon Resonance (SPR) assay. The class given is binding. Also on record: Full length WDR5 with an N-terminal His tag and C-terminal AviTag; His tag (N); made in house; host or cells: E. coli. Particulars: read-out: SPR Kd. The essentials: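 Full-length biotinylated WDR5 (N-His, C-AviTag, E. coli) captured (~3000 RU) on streptavidin SA chip; Biacore T200. HBS-EP pH 7.4 plus 5% DMSO running buffer, 40 μl/min.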

Usually IC50 stands for the concentration that gives 50% inhibition. Broadly, the EC50 is the concentration that produces a half-maximal response. The term Kd denotes the free concentration of one partner at which half of the binding sites on the other are occupied at equilibrium, for simple one-to-one binding. Take `C[C@H]1CN(c2cc(F)c(C3=CCN(C(=O)OC4CC(F)(F)C4)C3)c(F)c2NC(=O)c2c[nH]c(=O)cc2C(F)(F)F)CCN1C` [Example 45, 3,3-Difluorocyclobutyl (S)-3-(4-(3,4-dimethylpiperazin-1-yl)-2,6-difluoro-3-(6-oxo-4-(trifluoromethyl)-1,6-dihydropyridine-3-carboxamido)phenyl)-2,5-dihydro-1H-pyrrole-1-carboxylate]: the IC50 at WDR5 [1] is 12.1 nM. Also, the EC50 in the assay on MV4-11 cells stood at 76.7 nM. Also, at WDR5 [2], the Kd is 1.32 nM.

On to `C[C@H]1CN(c2cc(F)c(C3=CCCN(C(=O)OC4CC(F)(F)C4)C3)c(F)c2NC(=O)c2c[nH]c(=O)cc2C(F)(F)F)CCN1C` [Example 46, 3,3-Difluorocyclobutyl (S)-5-(4-(3,4-dimethylpiperazin-1-yl)-2,6-difluoro-3-(6-oxo-4-(trifluoromethyl)-1,6-dihydropyridine-3-carboxamido)phenyl)-3,6-dihydropyridine-1(2H)-carboxylate], for which the IC50 at WDR5 [1] came to 14.9 nM. In addition, the EC50 with MV4-11 cells came out at 607 nM. Also, the Kd on WDR5 [2] was determined as 2.97 nM.

On to `C[C@H]1CN(c2cc(F)c(C3=CCN(C(=O)OC4CC(F)(F)C4)CC3)c(F)c2NC(=O)c2c[nH]c(=O)cc2C(F)(F)F)CCN1C` [Example 47, 3,3-Difluorocyclobutyl (S)-4-(4-(3,4-dimethylpiperazin-1-yl)-2,6-difluoro-3-(6-oxo-4-(trifluoromethyl)-1,6-dihydropyridine-3-carboxamido)phenyl)-3,6-dihydropyridine-1(2H)-carboxylate], for which, on WDR5 [1], the IC50 was determined as 17.5 nM. For the same compound, the EC50 in the assay with MV4-11 cells came out at 63 nM. Moreover, the Kd at WDR5 [2] came to 1.35 nM.

In the case of `COc1cnc(N2CC=C(c3c(F)cc(N4CCN(C)[C@@H](C)C4)c(NC(=O)c4c[nH]c(=O)cc4C(F)F)c3F)CC2)nc1` [Example 48, (S)-4-(difluoromethyl)-N-(6-(3,4-dimethylpiperazin-1-yl)-2,4-difluoro-3-(1-(5-methoxypyrimidin-2-yl)-1,2,3,6-tetrahydropyridin-4-yl)phenyl)-6-oxo-1,6-dihydropyridine-3-carboxamide], on WDR5 [1], the IC50 came to 22.5 nM. In the assay with MV4-11 cells, the EC50 amounted to 270 nM. In addition, the Kd on WDR5 [2] came to 1.49 nM.

As for `COc1cnc(N2CCC=C(c3c(F)cc(N4CCN(C)[C@@H](C)C4)c(NC(=O)c4c[nH]c(=O)cc4C(F)F)c3F)C2)nc1` [Example 49, (S)-4-(difluoromethyl)-N-(6-(3,4-dimethylpiperazin-1-yl)-2,4-difluoro-3-(1-(5-methoxypyrimidin-2-yl)-1,2,5,6-tetrahydropyridin-3-yl)phenyl)-6-oxo-1,6-dihydropyridine-3-carboxamide], the half-inhibitory concentration (IC50) at WDR5 [1] was found to be 21.7 nM. Moreover, in the assay with MV4-11 cells, the EC50 was found to be 332 nM. At WDR5 [2], the Kd was found to be 2.68 nM.

Consider `COc1cnc(N2CC=C(c3c(F)cc(N4CCN(C)[C@@H](C)C4)c(NC(=O)c4c[nH]c(=O)cc4C(F)F)c3F)C2)nc1` [Example 50, (S)-4-(difluoromethyl)-N-(6-(3,4-dimethylpiperazin-1-yl)-2,4-difluoro-3-(1-(5-methoxypyrimidin-2-yl)-2,5-dihydro-1H-pyrrol-3-yl)phenyl)-6-oxo-1,6-dihydropyridine-3-carboxamide], for which the IC50 at WDR5 [1] is 11.8 nM. The EC50 in the assay with MV4-11 cells is 83.2 nM. Also, the Kd on WDR5 [2] turned out to be 0.8 nM.

Regarding `COc1cnc(N2CC=C(c3c(F)cc(N4CCN(C)[C@@H](C)C4)c(NC(=O)c4c[nH]c(=O)cc4C(F)(F)F)c3F)C2)nc1` [Example 51, (S)—N-(6-(3,4-dimethylpiperazin-1-yl)-2,4-difluoro-3-(1-(5-methoxypyrimidin-2-yl)-2,5-dihydro-1H-pyrrol-3-yl)phenyl)-6-oxo-4-(trifluoromethyl)-1,6-dihydropyridine-3-carboxamide], the IC50 on WDR5 [1] turned out to be 17 nM. Moreover, the EC50 in the assay on MV4-11 cells worked out at 111 nM. Moreover, the Kd at WDR5 [2] came to 1.1 nM.

On to `COc1cnc(N2CCC=C(c3c(F)cc(N4CCN(C)[C@@H](C)C4)c(NC(=O)c4c[nH]c(=O)cc4C(F)(F)F)c3F)C2)nc1` [Example 52, (S)—N-(6-(3,4-dimethylpiperazin-1-yl)-2,4-difluoro-3-(1-(5-methoxypyrimidin-2-yl)-1,2,5,6-tetrahydropyridin-3-yl)phenyl)-6-oxo-4-(trifluoromethyl)-1,6-dihydropyridine-3-carboxamide], for which the IC50 at WDR5 [1] turned out to be 20.1 nM. Also, in the assay with MV4-11 cells, the EC50 was determined as 285 nM. Moreover, the Kd at WDR5 [2] was 0.46 nM.

`COc1cnc(N2CC=C(c3c(F)cc(N4CCN(C)[C@@H](C)C4)c(NC(=O)c4c[nH]c(=O)cc4C(F)(F)F)c3F)CC2)nc1` [Example 53, (S)—N-(6-(3,4-dimethylpiperazin-1-yl)-2,4-difluoro-3-(1-(5-methoxypyrimidin-2-yl)-1,2,3,6-tetrahydropyridin-4-yl)phenyl)-6-oxo-4-(trifluoromethyl)-1,6-dihydropyridine-3-carboxamide]: the IC50 at WDR5 [1] came to 19.5 nM. For the same compound, the EC50 in the assay with MV4-11 cells is 75.8 nM. In addition, at WDR5 [2], the Kd came out at 1.02 nM.

As for `C[C@H]1CN(c2cc(F)c(C3=CCCN(c4ncccn4)C3)c(F)c2NC(=O)c2c[nH]c(=O)cc2C(F)F)CCN1C` [Example 54, (S)-4-(difluoromethyl)-N-(6-(3,4-dimethylpiperazin-1-yl)-2,4-difluoro-3-(1-(pyrimidin-2-yl)-1,2,5,6-tetrahydropyridin-3-yl)phenyl)-6-oxo-1,6-dihydropyridine-3-carboxamide], at WDR5 [1], the IC50 amounted to 28.8 nM. In addition, the EC50 with MV4-11 cells stood at 693 nM. The Kd on WDR5 [2] turned out to be 3.83 nM.

For the compound `C[C@@H]1CN(c2ncc(-c3c(F)cc(N4CCN(C)[C@@H](C)C4)c(NC(=O)c4c[nH]c(=O)cc4C(F)(F)F)c3F)cn2)C[C@H](C)O1` [Example 55, N-(3-(2-((2S,6R)-2,6-dimethylmorpholino)pyrimidin-5-yl)-6-((S)-3,4-dimethylpiperazin-1-yl)-2,4-difluorophenyl)-6-oxo-4-(trifluoromethyl)-1,6-dihydropyridine-3-carboxamide], the IC50 on WDR5 [1] was 14.8 nM. In addition, the EC50 in the assay on MV4-11 cells is 23.8 nM. For the same compound, the Kd at WDR5 [2] was 0.78 nM.

Regarding `C[C@@H]1CN(c2nccc(-c3c(F)cc(N4CCN(C)[C@@H](C)C4)c(NC(=O)c4cn(C)c(=O)cc4C(F)(F)F)c3F)n2)C[C@H](C)O1` [Example 56, N-(3-(2-((2S,6R)-2,6-dimethylmorpholino)pyrimidin-4-yl)-6-((S)-3,4-dimethylpiperazin-1-yl)-2,4-difluorophenyl)-1-methyl-6-oxo-4-(trifluoromethyl)-1,6-dihydropyridine-3-carboxamide], at WDR5 [1], the 50% inhibitory concentration (IC50) came out at 36.7 nM. Further, the EC50 in the assay with MV4-11 cells was 1320 nM. In addition, the Kd on WDR5 [2] came to 9.79 nM.

In the case of `C[C@@H]1CN(c2nccc(-c3c(F)cc(N4CCN(C)[C@@H](C)C4)c(NC(=O)c4cn(C)c(=O)cc4C(F)F)c3F)n2)C[C@H](C)O1` [Example 57, 4-(Difluoromethyl)-N-(3-(2-((2S,6R)-2,6-dimethylmorpholino)pyrimidin-4-yl)-6-((S)-3,4-dimethylpiperazin-1-yl)-2,4-difluorophenyl)-1-methyl-6-oxo-1,6-dihydropyridine-3-carboxamide], the IC50 on WDR5 [1] came out at 26.8 nM. In the assay with MV4-11 cells, the EC50 was found to be 367 nM. The Kd at WDR5 [2] was determined as 7.63 nM.
